Assay results from paper PMC9629815, “MK256 is a novel CDK8 inhibitor with potent antitumor activity in AML through downregulation of the STAT pathway” (Oncotarget, 2022).
Like-named read-outs stand apart in the source and are kept apart here.

Tests used:
HEL = test: Cell proliferation assay (CellTiter-Glo, 7-day); assay type: cell-based; conditions: Homo sapiens, 168 h
Protocol: [The procedure below names another cell line; the source lists this cell line under the same test.] (§1) AML cell lines MV-4-11, MOLM14, KG-1, and SKNO-1 were acquired from ATCC (Manassas, VA, USA) and DSMZ (Braunschweig, Germany). Cells were plated (96-well) in triplicate at 3000 cells per well for testing (n = 3) in 1% FBS media. On day 7, the CellTiter-Glo Luminescent Cell Viability Assay (Promega, Madison, WI, US) was performed to measure the response. Two independent experiments were done.

KG-1 = test: Cell proliferation assay (CellTiter-Glo, 7-day); assay type: cell-based; conditions: Homo sapiens, KG-1, 168 h
Protocol: as §1

MOLM-13 = test: Cell proliferation assay (CellTiter-Glo, 7-day); assay type: cell-based; conditions: Homo sapiens, MOLM-13, 168 h
Protocol: [The procedure below names another cell line; the source lists this cell line under the same test.] as §1

MOLM-14 = test: Cell proliferation assay (CellTiter-Glo, 7-day); assay type: cell-based; conditions: Homo sapiens, MOLM-14, 168 h
Protocol: as §1

MONO-MAC-6 = test: Cell proliferation assay (CellTiter-Glo, 7-day); assay type: cell-based; conditions: Homo sapiens, MONO-MAC-6, 168 h
Protocol: [The procedure below names another cell line; the source lists this cell line under the same test.] as §1

MUTZ-8 = test: Cell proliferation assay (CellTiter-Glo, 7-day); assay type: cell-based; conditions: MUTZ-8, 168 h
Protocol: [The procedure below names another cell line; the source lists this cell line under the same test.] as §1

MV-4-11 = test: Cell proliferation assay (CellTiter-Glo, 7-day); assay type: cell-based; conditions: Homo sapiens, MV4-11, 168 h
Protocol: as §1

NOMO-1 = test: Cell proliferation assay (CellTiter-Glo, 7-day); assay type: cell-based; conditions: Homo sapiens, NOMO-1, 168 h
Protocol: [The procedure below names another cell line; the source lists this cell line under the same test.] as §1

SKNO-1 = test: Cell proliferation assay (CellTiter-Glo, 7-day); assay type: cell-based; conditions: SKNO-1, 168 h
Protocol: as §1

[1] = test system: p-STATs, MCL-1, BCL-2, cleaved Parp, cleaved Caspase 3 in MOLM-14 cells; test: Western blot of STAT pathway and apoptosis markers in MOLM-14 cells; assay type: cell-based; design: targeted p-STATs and MCL-1 levels / expression of BCL-2: dose or concentration left out as unconfirmed
Protocol: For the in vitro western blot study, MV-4-11 and MOLM-14 cells were plated (6-well) at 5 × 10^5 cells per well with medium containing 1% FBS overnight. MK-256 was added in different concentrations at different time points. […] Total protein concentration was measured using the Pierce BCA protein Assay Kit (23227, Thermo Fisher Scientific). Proteins were separated on SDS-PAGE and transferred to Nitrocellulose membrane.

[2] = Hepatocyte stability assay; assay type: in vitro ADME, Human
Protocol: Human LiverPoolTM 20-donor, dog and mouse cryopreserved hepatocytes were obtained from BioreclamationIVT. Cryopreserved hepatocytes were removed from the liquid nitrogen tank and thawed in a 37°C water bath. As soon as the cells pulled away from the vial wall, they were decanted into 48 ml of warm HT medium. Cells were centrifuged for four minutes at 420 rpm (50 g). After the supernatant was removed, the pellet was re-suspended in warm DMEM medium. Cell density was counted by a hemacytometer. The assay was carried out in 96-well microtiter plates. MK256 was incubated for 0, 60, 120, and 180 minutes at 37°C with hepatocytes. Reaction mixtures (50 μL) contained a final concentration of 1 μM MK256, 0.5 million cells/mL hepatocytes in the DMEM medium. At each time point (for example, 0, 1, 2, and 3 hrs), 200 μL of quench solution (100% acetonitrile with 0.1% formic acid) with internal standard were transferred to each well. […] All samples were analyzed on LC/MS/MS using an AB Sciex API 4000 instrument, coupled to a Shimadzu LC-20AD LC Pump system. […] The extent of metabolism was calculated as the disappearance of the test compound, compared to the 0-min control reaction incubations. Initial rates were calculated for the compound concentration and used to determine t1/2 values and subsequently, the intrinsic clearance, CLint = (0.693)(1/t1/2 (min))(mL incubation/million cells).

MOLM-14 cells = test: Cell viability dose-response matrix of MK256 and venetoclax; assay type: cell-based; conditions: Homo sapiens, Venetoclax 0 nM, 72 hrs, read-out: percentage of cell viability
From the text: Our earlier experiments showing the clearly increasing expression of BCL-2 in the MOLM-14 cell line led us to ask if there was any combinational effect between MK256 and a BCL-2 inhibitor in MOLM-14 cells. To address this question, we chose venetoclax (ABT-199), an FDA-approved BCL-2 inhibitor for AML and CLL, for the combination study. We treated MOLM-14 cells with MK256 and venetoclax at a series of concentration combinations, measured cell viability, and reported the data in a dose-response matrix (Figure 8). […] We also investigated the apoptotic effect of the combination treatment in the MOLM-14 cell line (Figure 10B).
Figure 10 (A) Dose-response matrix of percentage of cell viability of 10,000 MOLM-14 cells after 72 hrs treatment of MK256 and venetoclax at various concentration combinations. (B) Annexin V staining of 10,000 MOLM-14 cells after 72 hrs treatment of MK256 and venetoclax(ABT199) at various concentration combinations. Status of cells are labeled in the graph at the upper left corner. (C) Tumor growth of MOLM-14 xenograft model. Groups of control; ABT199 (25 mg/kg); ABT199 (25 mg/kg) + MK256 (10 mg/kg); ABT199 25 mg/kg + MK256 (50 mg/kg) were shown in straight line, dotted line, 3 dashed line and 2 dashed line, respectively. ^*** P < 0.001. (D) Body weight percentage of MOLM-14 tumor model. […]

[3] = 7-day, bound given in text, read-out: IC50

Work on `Nc1nccc2c(Br)cc3cc(C(=O)O)ccc3c12` [MK256] yielded an IC50 (HEL; [3]) greater than 2000 nM, an IC50 (HEL; read-out: IC50 nM (7-day)) of 2700 nM and an IC50 (KG-1) of 80 nM. For the same molecule, the IC50 (MOLM-13) was 1050 nM, the IC50 (MOLM-14) was 24 nM and the IC50 (MONO-MAC-6) was 1260 nM. For the same molecule, the IC50 (MUTZ-8; [3]) was greater than 2000 nM, the IC50 (MUTZ-8; read-out: IC50 nM (7-day)) was 5560 nM and the IC50 (MV-4-11) was 23 nM. For the same molecule, the IC50 (NOMO-1) was 646 nM, the IC50 (SKNO-1) was 73 nM and the “levels of cleaved Parp and cleaved Caspase 3” value ([1]; 30 nM to 3 mM, 48 hr) was “dose-dependent upregulation”. For the same molecule, the “p-levels of STATs, time course” value ([1]; 300 nM, 4 hrs and 24 hrs) was “further downregulated in a time-dependent manner”, the “p-STAT1 (S727), p-STAT3(S727), p-STAT5(S726) levels” value ([1]; 2-hrs, various concentrations) was “dose-dependent inhibitions” and the MCL-1 level ([1]; 2 hrs) was “downregulated”. The “expression of BCL-2” value ([1]; 48 hr) was “unexpected upregulation”, the “targeted p-STATs and MCL-1 levels” value ([1]; 48 hr) was “dose-dependent inhibition” and the “Clint (μL·min^−1·mg protein^−1)” value ([2]; Human hepatocytes) was 16 μL·min^−1·mg protein^−1. It also gave a half-life at 1 µM ([2]; human, cryopreserved human hepatocytes (LiverPool 20-donor), read-out: T½) of 1.48 h, a viability at 0.0015 µM (MOLM-14 cells; MK256 1.5 nM) of 110% and a viability at 0.0046 µM (MOLM-14 cells; MK256 4.6 nM) of 101%. The viability at 0.0137 µM (MOLM-14 cells; MK256 13.7 nM) was 103%, the viability at 0.0412 µM (MOLM-14 cells; MK256 41.2 nM) was 103% and the viability at 0.1235 µM (MOLM-14 cells; MK256 123.5 nM) was 100%. The viability at 0.3704 µM (MOLM-14 cells; MK256 370.4 nM) was 90%, the viability at 1.1 µM (MOLM-14 cells; MK256 1100 nM) was 32% and the viability at 10 µM (MOLM-14 cells; MK256 10000 nM) was 0%. The viability at 30 µM (MOLM-14 cells; MK256 30000 nM) was 0%.
